Assay results published in the supplement of paper PMC11616607.

What follows are compounds tested on COV318 (assay: drug sensitivity score (DSS) from 5-point dose-response viability curve (DSS (area-under-curve based score)); higher = more sensitive (stronger growth inhibition or killing); extreme values may be limits of the assay). Conditions: exposure time: 72 h; concentration range: 5 concentrations over 10,000-fold range.
In short: (§1)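 Drugs in DMSO or water were acoustically dispensed (Echo 550) into 384-well plates at five concentrations across a 10,000-fold range. Ovarian cancer and normal ovarian cells (1,500 per well) were then added, incubated for 3 days at 37°C with 5% CO2, and read for viability by CellTiter-Glo luminescence on a PHERAstar FS. From these readings, Breeze software derived a drug sensitivity score per cell line and drug, with higher values meaning more sensitive and zero meaning no response.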

Compared with `CCN(CC)CCCC(C)Nc1c2ccc(Cl)cc2nc2ccc(OC)cc12` (stereo unspecified) [Mepacrine], `CCNC(=O)C[C@@H]1N=C(c2ccc(Cl)cc2)c2cc(OC)ccc2-n2c(C)nnc21` [Molibresib] is lower in drug sensitivity score: 10.3 for the first, 3.3 for the second.

Going from `S=c1[nH]cnc2nc[nH]c12` [Mercaptopurine] to `CN(Cc1cnc2nc(N)nc(N)c2n1)c1ccc(C(=O)N[C@@H](CCC(=O)O)C(=O)O)cc1` [Methotrexate], the drug sensitivity score falls from 0.1 to 0.

First: Cc1ccc(C(=O)Nc2ccc(Oc3cc4cnn(C)c4cc3-c3cn[nH]c3)c(F)c2)c(=O)n1-c1ccc(F)cc1 [Merestinib]
Second: CCS(=O)(=O)Nc1ccc(Oc2ccc(F)cc2F)c(-c2cn(C)c(=O)c3[nH]ccc23)c1 [Mivebresib]
The drug sensitivity score of the first is lower: 0 for the first, 6.4 for the second.

`CN(C)C(=N)NC(=N)N` [Metformin] and `CO[C@@]12[C@H](COC(N)=O)C3=C(C(=O)C(C)=C(N)C3=O)N1C[C@@H]1N[C@@H]12` [Mitomycin C] are the same in drug sensitivity score: 0 for the first, 0 for the second.

First: C[C@H]1C[C@@H]2[C@H]([C@@H](O)C[C@@]3(C)[C@H]2CC[C@]3(O)C(=O)CO)[C@@]2(C)C=CC(=O)C=C12 [Methylprednisolone]
Second: CN[C@@H](C)C(=O)N[C@H](C(=O)N1CCC[C@H]1c1nc(C(=O)c2ccc(F)cc2)cs1)C1CCCCC1 [NVP-LCL161]
The drug sensitivity score of the first is higher: 1.3 for the first, 0.8 for the second.

First: CO[C@@H]1[C@H](N(C)C(=O)c2ccccc2)C[C@H]2O[C@]1(C)n1c3ccccc3c3c4c(c5c6ccccc6n2c5c31)C(=O)NC4 [Midostaurin]
Second: COc1ccc(-c2ccc3ncc4c(c3c2)n(-c2ccc(N3CCNCC3)c(C(F)(F)F)c2)c(=O)n4C)cn1 [NVP-BGT226]
The drug sensitivity score of the first is lower: 8.1 for the first, 9.3 for the second.

First: CNC(=O)c1nn(C)c2c1C(C)(C)Cc1cnc(Nc3ccc(N4CCN(C)CC4)cc3)nc1-2 [Milciclib]
Second: N#CCNC(=O)c1ccc(-c2ccnc(Nc3ccc(N4CCOCC4)cc3)n2)cc1 [Momelotinib]
The drug sensitivity score of the first is higher: 6.5 for the first, 2.7 for the second.

Compared with `CCCCCCCCCCCCCCCCOP(=O)([O-])OCC[N+](C)(C)C` [Miltefosine], `CCCN(CCC)C(=O)C1=Cc2ccc(-c3ccc(C(=O)N4CCCC4)cc3)cc2N=C(N)C1` [Motolimod] is lower in drug sensitivity score: 4.7 for the first, 2.3 for the second.

Compared with `Clc1ccc(C(c2ccccc2Cl)C(Cl)Cl)cc1` (stereo unspecified) [Mitotane], `Nc1ccccc1NC(=O)c1ccc(CNc2nccc(-c3cccnc3)n2)cc1` [Mocetinostat] is higher in drug sensitivity score: 0.1 for the first, 8.1 for the second.

Compared with `O=C1c2c(O)ccc(O)c2C(=O)c2c(NCCNCCO)ccc(NCCNCCO)c21` [Mitoxantrone], `CC(=O)c1cc2c(o1)C(=O)c1ccccc1C2=O` [Napabucasin] is higher in drug sensitivity score: 3.9 for the first, 16.2 for the second.

First: CC1(C)CNc2cc(NC(=O)c3cccnc3NCc3ccncc3)ccc21 [Motesanib]
Second: Cc1ccc(C(=O)Nc2cccc(C(F)(F)F)c2)cc1Nc1nc(-c2cccnc2)nc2c1cnn2C [NVP-BHG712]
The drug sensitivity score of the first is lower: 1.1 for the first, 2.8 for the second.

First: FC(F)(F)c1ccc(/C=C/c2nc(COc3ccc(CCCCn4ccnn4)cc3)co2)cc1 [Mubritinib]
Second: Cn1c(Nc2ccc(C(F)(F)F)cc2)nc2cc(Oc3ccnc(-c4ncc(C(F)(F)F)[nH]4)c3)ccc21 [NVP-RAF265]
The drug sensitivity score of the first is higher: 0.8 for the first, 0 for the second.

Compared with `Cc1cc(OCc2nnc(SC3CCCC3)n2-c2cccnc2)ccc1-c1ccc(S(C)(=O)=O)cc1` [NMS-873], `COc1cc2c(cc1OC(C)C)[C@H](c1ccc(Cl)cc1)N(c1ccc(N(C)C[C@H]3CC[C@H](N4CCN(C)C(=O)C4)CC3)cc1)C(=O)C2` [NVP-CGM097] is lower in drug sensitivity score: 8.7 for the first, 5.9 for the second.

Compound `CC1(C)CCC(c2ccc(Cl)cc2)=C(CN2CCN(c3ccc(C(=O)NS(=O)(=O)c4ccc(N[C@H](CCN5CCOCC5)CSc5ccccc5)c(S(=O)(=O)C(F)(F)F)c4)cc3)CC2)C1` [Navitoclax] has a drug sensitivity score of 0.

These compounds were tested on OVCAR5 in the same assay as above. Conditions: exposure time: 72 h; concentration range: 5 concentrations over 10,000-fold range.
In short: as §1

Going from `CCN(CC)CCCC(C)Nc1c2ccc(Cl)cc2nc2ccc(OC)cc12` (stereo unspecified) [Mepacrine] to `CCNC(=O)C[C@@H]1N=C(c2ccc(Cl)cc2)c2cc(OC)ccc2-n2c(C)nnc21` [Molibresib], the drug sensitivity score falls from 13.1 to 7.8.

First: S=c1[nH]cnc2nc[nH]c12 [Mercaptopurine]
Second: CN(Cc1cnc2nc(N)nc(N)c2n1)c1ccc(C(=O)N[C@@H](CCC(=O)O)C(=O)O)cc1 [Methotrexate]
The drug sensitivity score of the first is lower: 7.3 for the first, 13.8 for the second.

First: Cc1ccc(C(=O)Nc2ccc(Oc3cc4cnn(C)c4cc3-c3cn[nH]c3)c(F)c2)c(=O)n1-c1ccc(F)cc1 [Merestinib]
Second: CCS(=O)(=O)Nc1ccc(Oc2ccc(F)cc2F)c(-c2cn(C)c(=O)c3[nH]ccc23)c1 [Mivebresib]
The drug sensitivity score of the first is lower: 0.9 for the first, 20.2 for the second.

`CN(C)C(=N)NC(=N)N` [Metformin] and `CO[C@@]12[C@H](COC(N)=O)C3=C(C(=O)C(C)=C(N)C3=O)N1C[C@@H]1N[C@@H]12` [Mitomycin C] are the same in drug sensitivity score: 0 for the first, 0 for the second.

First: C[C@H]1C[C@@H]2[C@H]([C@@H](O)C[C@@]3(C)[C@H]2CC[C@]3(O)C(=O)CO)[C@@]2(C)C=CC(=O)C=C12 [Methylprednisolone]
Second: CN[C@@H](C)C(=O)N[C@H](C(=O)N1CCC[C@H]1c1nc(C(=O)c2ccc(F)cc2)cs1)C1CCCCC1 [NVP-LCL161]
The drug sensitivity score of the first is lower: 0 for the first, 4.1 for the second.

Going from `CO[C@@H]1[C@H](N(C)C(=O)c2ccccc2)C[C@H]2O[C@]1(C)n1c3ccccc3c3c4c(c5c6ccccc6n2c5c31)C(=O)NC4` [Midostaurin] to `COc1ccc(-c2ccc3ncc4c(c3c2)n(-c2ccc(N3CCNCC3)c(C(F)(F)F)c2)c(=O)n4C)cn1` [NVP-BGT226], the drug sensitivity score rises from 5.3 to 14.6.

Going from `CNC(=O)c1nn(C)c2c1C(C)(C)Cc1cnc(Nc3ccc(N4CCN(C)CC4)cc3)nc1-2` [Milciclib] to `N#CCNC(=O)c1ccc(-c2ccnc(Nc3ccc(N4CCOCC4)cc3)n2)cc1` [Momelotinib], the drug sensitivity score falls from 9.4 to 3.3.

First: CCCCCCCCCCCCCCCCOP(=O)([O-])OCC[N+](C)(C)C [Miltefosine]
Second: CCCN(CCC)C(=O)C1=Cc2ccc(-c3ccc(C(=O)N4CCCC4)cc3)cc2N=C(N)C1 [Motolimod]
The drug sensitivity score of the first is higher: 9.1 for the first, 0.5 for the second.

Compared with `Clc1ccc(C(c2ccccc2Cl)C(Cl)Cl)cc1` (stereo unspecified) [Mitotane], `Nc1ccccc1NC(=O)c1ccc(CNc2nccc(-c3cccnc3)n2)cc1` [Mocetinostat] is higher in drug sensitivity score: 0 for the first, 13.7 for the second.

Compared with `O=C1c2c(O)ccc(O)c2C(=O)c2c(NCCNCCO)ccc(NCCNCCO)c21` [Mitoxantrone], `CC(=O)c1cc2c(o1)C(=O)c1ccccc1C2=O` [Napabucasin] is higher in drug sensitivity score: 6.1 for the first, 21.3 for the second.

Compared with `CC1(C)CNc2cc(NC(=O)c3cccnc3NCc3ccncc3)ccc21` [Motesanib], `Cc1ccc(C(=O)Nc2cccc(C(F)(F)F)c2)cc1Nc1nc(-c2cccnc2)nc2c1cnn2C` [NVP-BHG712] is higher in drug sensitivity score: 0 for the first, 8.8 for the second.

First: FC(F)(F)c1ccc(/C=C/c2nc(COc3ccc(CCCCn4ccnn4)cc3)co2)cc1 [Mubritinib]
Second: Cn1c(Nc2ccc(C(F)(F)F)cc2)nc2cc(Oc3ccnc(-c4ncc(C(F)(F)F)[nH]4)c3)ccc21 [NVP-RAF265]
The drug sensitivity score of the first is higher: 0.9 for the first, 0.4 for the second.

Compared with `Cc1cc(OCc2nnc(SC3CCCC3)n2-c2cccnc2)ccc1-c1ccc(S(C)(=O)=O)cc1` [NMS-873], `COc1cc2c(cc1OC(C)C)[C@H](c1ccc(Cl)cc1)N(c1ccc(N(C)C[C@H]3CC[C@H](N4CCN(C)C(=O)C4)CC3)cc1)C(=O)C2` [NVP-CGM097] is lower in drug sensitivity score: 8.9 for the first, 7.2 for the second.

With `CC1(C)CCC(c2ccc(Cl)cc2)=C(CN2CCN(c3ccc(C(=O)NS(=O)(=O)c4ccc(N[C@H](CCN5CCOCC5)CSc5ccccc5)c(S(=O)(=O)C(F)(F)F)c4)cc3)CC2)C1` [Navitoclax] the drug sensitivity score was 0.9.

What follows are compounds tested on CAOV3 in the same assay as above. Conditions: exposure time: 72 h; concentration range: 5 concentrations over 10,000-fold range.
In short: as §1

Going from `CCN(CC)CCCC(C)Nc1c2ccc(Cl)cc2nc2ccc(OC)cc12` (stereo unspecified) [Mepacrine] to `CCNC(=O)C[C@@H]1N=C(c2ccc(Cl)cc2)c2cc(OC)ccc2-n2c(C)nnc21` [Molibresib], the drug sensitivity score falls from 9.4 to 8.4.

Going from `S=c1[nH]cnc2nc[nH]c12` [Mercaptopurine] to `CN(Cc1cnc2nc(N)nc(N)c2n1)c1ccc(C(=O)N[C@@H](CCC(=O)O)C(=O)O)cc1` [Methotrexate], the drug sensitivity score rises from 12.4 to 16.7.

First: Cc1ccc(C(=O)Nc2ccc(Oc3cc4cnn(C)c4cc3-c3cn[nH]c3)c(F)c2)c(=O)n1-c1ccc(F)cc1 [Merestinib]
Second: CCS(=O)(=O)Nc1ccc(Oc2ccc(F)cc2F)c(-c2cn(C)c(=O)c3[nH]ccc23)c1 [Mivebresib]
The drug sensitivity score of the first is lower: 0 for the first, 25.3 for the second.

Compared with `CN(C)C(=N)NC(=N)N` [Metformin], `CO[C@@]12[C@H](COC(N)=O)C3=C(C(=O)C(C)=C(N)C3=O)N1C[C@@H]1N[C@@H]12` [Mitomycin C] is higher in drug sensitivity score: 0 for the first, 4.7 for the second.

First: C[C@H]1C[C@@H]2[C@H]([C@@H](O)C[C@@]3(C)[C@H]2CC[C@]3(O)C(=O)CO)[C@@]2(C)C=CC(=O)C=C12 [Methylprednisolone]
Second: CN[C@@H](C)C(=O)N[C@H](C(=O)N1CCC[C@H]1c1nc(C(=O)c2ccc(F)cc2)cs1)C1CCCCC1 [NVP-LCL161]
The drug sensitivity score of the first is lower: 0 for the first, 14.4 for the second.

Going from `CO[C@@H]1[C@H](N(C)C(=O)c2ccccc2)C[C@H]2O[C@]1(C)n1c3ccccc3c3c4c(c5c6ccccc6n2c5c31)C(=O)NC4` [Midostaurin] to `COc1ccc(-c2ccc3ncc4c(c3c2)n(-c2ccc(N3CCNCC3)c(C(F)(F)F)c2)c(=O)n4C)cn1` [NVP-BGT226], the drug sensitivity score falls from 17.7 to 12.7.

First: CNC(=O)c1nn(C)c2c1C(C)(C)Cc1cnc(Nc3ccc(N4CCN(C)CC4)cc3)nc1-2 [Milciclib]
Second: N#CCNC(=O)c1ccc(-c2ccnc(Nc3ccc(N4CCOCC4)cc3)n2)cc1 [Momelotinib]
The drug sensitivity score of the first is higher: 6.8 for the first, 0.9 for the second.

Compared with `CCCCCCCCCCCCCCCCOP(=O)([O-])OCC[N+](C)(C)C` [Miltefosine], `CCCN(CCC)C(=O)C1=Cc2ccc(-c3ccc(C(=O)N4CCCC4)cc3)cc2N=C(N)C1` [Motolimod] is lower in drug sensitivity score: 12.8 for the first, 0 for the second.

First: Clc1ccc(C(c2ccccc2Cl)C(Cl)Cl)cc1 (stereo unspecified) [Mitotane]
Second: Nc1ccccc1NC(=O)c1ccc(CNc2nccc(-c3cccnc3)n2)cc1 [Mocetinostat]
The drug sensitivity score of the first is lower: 0 for the first, 7.1 for the second.

Compared with `O=C1c2c(O)ccc(O)c2C(=O)c2c(NCCNCCO)ccc(NCCNCCO)c21` [Mitoxantrone], `CC(=O)c1cc2c(o1)C(=O)c1ccccc1C2=O` [Napabucasin] is higher in drug sensitivity score: 13 for the first, 18.2 for the second.

`CC1(C)CNc2cc(NC(=O)c3cccnc3NCc3ccncc3)ccc21` [Motesanib] and `Cc1ccc(C(=O)Nc2cccc(C(F)(F)F)c2)cc1Nc1nc(-c2cccnc2)nc2c1cnn2C` [NVP-BHG712] are the same in drug sensitivity score: 0 for the first, 0 for the second.

Going from `FC(F)(F)c1ccc(/C=C/c2nc(COc3ccc(CCCCn4ccnn4)cc3)co2)cc1` [Mubritinib] to `Cn1c(Nc2ccc(C(F)(F)F)cc2)nc2cc(Oc3ccnc(-c4ncc(C(F)(F)F)[nH]4)c3)ccc21` [NVP-RAF265], the drug sensitivity score falls from 5.4 to 2.2.

Going from `Cc1cc(OCc2nnc(SC3CCCC3)n2-c2cccnc2)ccc1-c1ccc(S(C)(=O)=O)cc1` [NMS-873] to `COc1cc2c(cc1OC(C)C)[C@H](c1ccc(Cl)cc1)N(c1ccc(N(C)C[C@H]3CC[C@H](N4CCN(C)C(=O)C4)CC3)cc1)C(=O)C2` [NVP-CGM097], the drug sensitivity score falls from 8.6 to 3.3.

With `CC1(C)CCC(c2ccc(Cl)cc2)=C(CN2CCN(c3ccc(C(=O)NS(=O)(=O)c4ccc(N[C@H](CCN5CCOCC5)CSc5ccccc5)c(S(=O)(=O)C(F)(F)F)c4)cc3)CC2)C1` [Navitoclax] the drug sensitivity score was 2.6.
